Earlier results in US20260092327A1, “METHODS OF MONITORING MUTATIONS IN TREATMENT OF COLORECTAL CANCER” (Cardiff Oncology, Inc., priority 2022, published 2026).

Legend:
[1] = test system: advanced/metastatic solid tumors
xenograft tumor = conditions: well tolerated doses in mice after oral administration
[2] = test system: cell lines from solid and hematologic tumors; conditions: large number of cell lines
PLK1 = PLK1 (Homo sapiens, UniProt P53350); conditions: among a panel of 296 kinases, including other PLK members
Chain of PLK1 (P53350 whole entry): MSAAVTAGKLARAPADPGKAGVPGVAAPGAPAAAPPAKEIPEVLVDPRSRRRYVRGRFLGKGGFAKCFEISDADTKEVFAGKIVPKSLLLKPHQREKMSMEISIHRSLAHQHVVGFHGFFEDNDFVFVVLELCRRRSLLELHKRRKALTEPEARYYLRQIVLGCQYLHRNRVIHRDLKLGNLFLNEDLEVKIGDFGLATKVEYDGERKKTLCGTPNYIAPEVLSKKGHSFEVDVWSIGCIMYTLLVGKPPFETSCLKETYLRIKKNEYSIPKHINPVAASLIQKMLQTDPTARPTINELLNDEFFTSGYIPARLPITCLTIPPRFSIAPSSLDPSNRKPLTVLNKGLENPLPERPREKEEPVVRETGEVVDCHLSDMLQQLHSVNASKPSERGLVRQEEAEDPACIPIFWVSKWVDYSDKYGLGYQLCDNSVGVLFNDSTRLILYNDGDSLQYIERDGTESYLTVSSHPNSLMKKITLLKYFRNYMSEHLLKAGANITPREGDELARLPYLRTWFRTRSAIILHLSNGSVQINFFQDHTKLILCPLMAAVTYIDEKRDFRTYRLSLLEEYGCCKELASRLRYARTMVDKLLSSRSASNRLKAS

[3] = test system: HT29 human colon adenocarcinoma xenografts; conditions: compared to each agent alone
[4] = test system: HCT-116 KRAS-mutant CRC xenograft; conditions: HCT-116 KRAS-mutant CRC xenograft model
[5] = test system: disseminated model of AML
[6] = adult subjects with advanced/metastatic solid tumors, single agent

recommended phase 2 dose [1, 6]: 24 mg/m^2
half-life (in vivo): about 24 hours
oral bioavailability (rodent and nonrodent species): good oral bioavailability
specificity for PLK1 (PLK1): high specificity
SMILES: CN1CCN(c2ccc(OC(F)(F)F)c(Nc3ncc4c(n3)-c3c(c(C(N)=O)nn3CCO)CC4)c2)CC1 [Onvansertib, 1-(2-hydroxyethyl)-8-{[5-(4-methylpiperazin-1-yl)-2-(trifluoromethoxy)phenyl]amino}-4,5-dihydro-1H-pyrazolo[4,3-h]quinazoline-3-carboxamide]
evaluable patients with stable disease [1, 6]: 5 of 16
primary dose-limiting toxicities ([1]; patients with advanced/metastatic solid tumors): neutropenia and thrombocytopenia
recovery of hematologic toxicities ([1]; toxicities reversible): ≤ 3 weeks
xenograft tumor growth (xenograft tumor): inhibits xenograft tumor growth
potency in proliferation assays [2]: low nanomolar activity
effect on cell cycle (cancer cell lines): mitotic cell-cycle arrest followed by apoptosis
tumor regression in combination with irinotecan [3]: enhanced tumor regression
anti-tumor activity as single agent [4]: potent anti-tumor activity
combination effect with 5-FU [4]: synergy
combination effect with irinotecan [4]: synergy
survival of animals in combination with cytarabine [5]: prolonged survival
